Results reported in BindingDB's records for patent US9707233 (Incyte Holdings Corporation, 2017).

Target: T1, Phosphatidylinositol 4,5-bisphosphate 3-kinase catalytic subunit delta isoform (Homo sapiens, UniProt O00329)
T1 sequence (O00329 whole entry): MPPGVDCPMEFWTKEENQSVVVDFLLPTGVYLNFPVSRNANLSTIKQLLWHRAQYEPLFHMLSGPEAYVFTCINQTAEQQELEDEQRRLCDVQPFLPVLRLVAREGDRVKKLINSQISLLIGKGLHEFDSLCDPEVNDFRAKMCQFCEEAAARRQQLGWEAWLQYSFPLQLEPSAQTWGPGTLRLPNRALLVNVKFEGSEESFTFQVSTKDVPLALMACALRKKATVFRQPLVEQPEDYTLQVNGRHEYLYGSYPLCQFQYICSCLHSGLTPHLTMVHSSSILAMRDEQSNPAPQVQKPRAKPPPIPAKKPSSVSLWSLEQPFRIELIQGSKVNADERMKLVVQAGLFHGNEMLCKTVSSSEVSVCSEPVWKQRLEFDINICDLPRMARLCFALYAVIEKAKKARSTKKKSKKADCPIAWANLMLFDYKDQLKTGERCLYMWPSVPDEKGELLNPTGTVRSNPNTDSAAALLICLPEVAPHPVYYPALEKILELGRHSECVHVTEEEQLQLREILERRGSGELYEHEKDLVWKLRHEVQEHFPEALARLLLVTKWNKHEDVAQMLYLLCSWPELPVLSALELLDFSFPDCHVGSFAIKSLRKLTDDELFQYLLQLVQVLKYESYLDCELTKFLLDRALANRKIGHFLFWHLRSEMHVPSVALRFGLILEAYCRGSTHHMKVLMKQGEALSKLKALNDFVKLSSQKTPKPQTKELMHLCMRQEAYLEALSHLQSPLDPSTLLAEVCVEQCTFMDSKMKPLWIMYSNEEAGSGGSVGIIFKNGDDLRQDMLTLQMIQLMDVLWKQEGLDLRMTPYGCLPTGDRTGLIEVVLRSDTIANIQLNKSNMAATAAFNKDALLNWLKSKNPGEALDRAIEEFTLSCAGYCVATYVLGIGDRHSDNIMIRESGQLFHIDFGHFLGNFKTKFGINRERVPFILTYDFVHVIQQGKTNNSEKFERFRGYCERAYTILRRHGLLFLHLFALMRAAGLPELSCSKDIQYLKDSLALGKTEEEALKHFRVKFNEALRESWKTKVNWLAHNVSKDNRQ
Assay: A2 PI3Kdelta Scintillation Proximity Assay
Conditions: pH 6.7; 25 °C
Method: PI3K isoforms α, β, δ and γ are purchased from Millipore (Bedford, Mass.). […] Inhibitors are first diluted serially in DMSO and added to the plate wells before the addition of other reaction components. The final concentration of DMSO in the assay is 0.5%. The PI3K assays are carried out at room temperature in 20 mM MOPS, pH 6.7, 10 mM MgCl2, 5 mM DTT and CHAPS 0.03%. The reaction mixture is prepared containing 50 μM PIP2, kinase and varying concentration of inhibitors. […] Reactions are incubated for 180 minutes and terminated by the addition of 100 μL of 1 M potassium phosphate pH 8.0, 30 mM EDTA quench buffer. A 100 μL aliquot of the reaction solution are then transferred to 96-well Millipore MultiScreen IP 0.45 μm PVDF filter plate (The filter plate is prewetted with 200 μL 100% ethanol, distilled water, and 1 M potassium phosphate pH 8.0, respectively). […] After drying by aspiration and blotting, the plate is air dried in an incubator at 37° C. overnight. Packard TopCount adapter (Millipore) is then attached to the plate followed with addition of 120 μL Microscint 20 scintillation cocktail (Perkin Elmer) in each well. After the plate sealing, the radioactivity of the product is determined by scintillation counting on Topcount (Perkin-Elmer). […]

IC50 [nM]	SMILES
< 10	COc1c(C(C)n2nc(C)c3c(N)ncnc32)cc(Cl)c(C)c1C1CN(CC(F)F)C1 (single isomer, unassigned) [US9707233, 112]
< 10	CCOc1c(C(C)n2nc(C)c3c(N)ncnc32)cc(Cl)c(C#N)c1C1CN(C(C)(C)C(=O)N(C)C)C1 (single isomer, unassigned) [US9707233, 241]
